From patent US20030049814A1, “Herbicide resistant plants” (priority 1999, published 2003)
Structures can show the parent of a compound that is named as a salt.

Columns and labels:
resistant form of EPSPS = assay: EPSPS assay of plant extracts with or without glyphosate, resistant enzyme; type: biochemical, rice; conditions: 0.1 mM glyphosate, 0.1 mM 14C-PEP, 0.75 mM shikimate-3-Pi
Protocol: (§1) Assays are carried out generally according to the radiochemical method of Padgette et al 1987 (Archives of Biochemistry and Biophysics, 258(2) 564-573) with K+ions as the major species of cationic counterion. Assays in a total volume of 50 μl, in 50 mM Hepes(KOH) pH 7.0 at 25° C., contain purified enzyme or plant extract (see below) diluted appropriately in Hepes pH 7.0 containing 10% glycerol, and 5 mM DTT, ^14C PEP either as variable substrate(for kinetic determinations) or fixed at 100 or 250 μM and shikimate 3 Phosphate (K+salt) at 2 or 0.75 mM as indicated. Optionally, for assays of crude plant extracts, assays also contain 5 mM KF and/or 0.1 mM ammonium molybdate. Assays are started with the addition of ^14C phosphoenolpyruvate (cyclohexylammonium+salt) and stopped after 2-10 minutes (2 minutes is preferable) with the addition of 50μl of a solution of 1 part 1M acetic acid and 9 parts ethanol. […] Apparent Km and Vmax values are determined by least squares fit to a hyperbola with simple weighting using the Grafit 3.09b from Erithacus Software Ltd. Km values are generally ascertained using 8-9 concentrations of variable substrate ranging from Km/2-10 Km and triplicate points. […]

[1] = test system: sensitive w/t form of EPSPS (endogenous); assay: EPSPS assay of plant extracts with or without glyphosate, sensitive enzyme; type: biochemical, corn; conditions: 0.1 mM glyphosate, 0.1 mM 14C-PEP, 0.75 mM shikimate-3-Pi
Protocol: as §1

[2] = molecular target: T1, mutant form of rice EPSPS (Oryza sativa, UniProt A0A0N9WU17, P177S/T173I); assay: EPSPS enzyme assay (radiochemical) of purified mutant rice EPSPS; type: biochemical
T1 sequence (A0A0N9WU17 72-515 T173I/P177S): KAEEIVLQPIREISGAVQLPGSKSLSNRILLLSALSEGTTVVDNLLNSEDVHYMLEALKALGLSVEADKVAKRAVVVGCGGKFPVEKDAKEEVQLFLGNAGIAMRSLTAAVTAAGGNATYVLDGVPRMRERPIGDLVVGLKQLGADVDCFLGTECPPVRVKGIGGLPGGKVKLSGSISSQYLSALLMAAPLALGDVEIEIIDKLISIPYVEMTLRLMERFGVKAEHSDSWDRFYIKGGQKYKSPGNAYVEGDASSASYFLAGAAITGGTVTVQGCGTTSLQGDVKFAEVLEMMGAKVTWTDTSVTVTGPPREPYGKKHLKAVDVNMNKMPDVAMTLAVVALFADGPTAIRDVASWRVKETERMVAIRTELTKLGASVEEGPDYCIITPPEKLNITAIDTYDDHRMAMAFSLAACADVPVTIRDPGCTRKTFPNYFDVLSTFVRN
From the text: The resultant products are gel purified and placed into a tube in eqi-molar concentrations to serve as a template for another round of PCRs with the rice 5′ and 3′ oligos. The resultant products are cloned into pCRBlunt II using Invitrogens Zero Blunt TOPO kit. It is confirmed that the DNA sequence of the insert and its predicted open reading frame correspond to that of the predicted mature chloroplastic rice EPSPS protein (with the exception of the presence of an initiating Met) and also that the desired changes (the specific mutation of T to I and P to S at specific positions in the EPSPS sequence) are encoded . The thus cloned and verified rice epsps sequence is excised using Nde 1 and Xho 1 and the purified fragment cloned into pET24a (Novagen) digested similarly. The recombinant clones are introduced into BL21 (DE3), a codon optimised RP strain of E. coli supplied by Strategene. The EPSPS protein is expressed in this strain following addition of 1 mM IPTG to the fermenter medium (LB supplemented with 100 ug/ml Kanamycin). […]

O=C(O)CNCP(=O)(O)O [N-(phosphonomethyl)glycine, N-phosphonomethylglycine]
inhibition of resistant (tolerant) EPSPS (resistant form of EPSPS): < 8.5%
inhibition of resistant (tolerant) EPSPS (resistant form of EPSPS; listed as glyphosate): ~8%
inhibition of sensitive w/t (endogenous) EPSPS [1]: > 98%

O=C(O)CNCP(=O)(O)O [potassium salt of glyphosate]
IC50 [2]: ~600 µM
Ki [2]: ~200 µM
